Measured values reported in ChEMBL document CHEMBL5120768, “Discovery of Anticancer Agents of Diverse Natural Origin” (J Nat Prod, 2022).
Each block holds one compound with its values, some of them ahead of it.

Assays:
MDA-MB-231 [1] = assay: Antiproliferative activity against human MDA-MB-231 cells after 72 hrs by CellTiter 96 AQueous One Solution Cell Proliferation assay; assay type: functional, cell-based; settings: MDA-MB-231, 72 h
[2] = Antiproliferative activity against human CCD-112CoN cells after 72 hrs by SRB assay; assay type: functional, cell-based
20S proteasome = assay: Inhibition of chymotrypsin-like activity of human erythrocytes 20S proteasome using Suc-LLVY-AMC as substrate and measured by fluorescence assay
MDA-MB-435 [3] = assay: Antiproliferative activity against human MDA-MB-435 cells; assay type: functional, cell-based
MDA-MB-231 [4] = assay: Antiproliferative activity against human MDA-MB-231 cells; assay type: functional, cell-based
HT-29 [5] = assay: Antiproliferative activity against human HT-29 cells after 3 days by SRB assay; assay type: functional, cell-based; settings: HT-29, 72 h
MCF7 [6] = assay: Antiproliferative activity against human MCF7 cells; assay type: functional, cell-based
A2780 [7] = assay: Antiproliferative activity against human A2780 cells; assay type: functional, cell-based
[8] = Antiproliferative activity against human PC-3 cells after 3 days by SRB assay; assay type: functional, cell-based
MDA-MB-435 [9] = assay: Antiproliferative activity against human MDA-MB-435 cells after 72 hrs by CellTiter 96 AQueous One Solution Cell Proliferation assay; assay type: functional, cell-based; settings: MDA-MB-435, 72 h
OVCAR-3 = assay: Antiproliferative activity against human OVCAR-3 cells after 72 hrs by CellTiter 96 AQueous One Solution Cell Proliferation assay; assay type: functional, cell-based; settings: OVCAR-3, 72 h
HT-29 [10] = assay: Antiproliferative activity against human HT-29 cells after 72 hrs by CellTiter 96 AQueous One Solution Cell Proliferation assay; assay type: functional, cell-based; settings: HT-29, 72 h
A2780 [11] = assay: Antiproliferative activity against human A2780 cells by SRB assay; assay type: functional, cell-based
MCF7 [12] = assay: Antiproliferative activity against human MCF7 cells by SRB assay; assay type: functional, cell-based

Compound: C[C@H]1O[C@@H](O[C@H]2CC[C@]3(C)[C@H]4CC[C@]5(C)[C@@H](C6=CC(=O)OC6)CC[C@]5(O)[C@@H]4CC[C@]3(O)C2)C[C@H](O)[C@@H]1O[C@@H]1O[C@H](CO)[C@@H](O)[C@H](O)[C@H]1O
IC50 [2]: 2700 nM

Compound: CCCC[C@H]1CCCC[C@H](C)[C@@H](O)c2cc(O)c(c(O)c2)[C@@H](CCCC)CCCC[C@H](C)[C@@H](O[C@@H]2OC[C@@H](O)[C@@H](O)[C@H]2O)c2cc(O)c1c(O)c2
IC50 (MDA-MB-435 [3]): 600 nM | IC50 (MDA-MB-231 [4]): 600 nM

Compound: COc1ccc([C@@]23Oc4cc(OC)cc(OC)c4[C@]2(O)[C@H](O)[C@H](C(N)=O)[C@H]3c2ccccc2)cc1 [DIDESMETHYLROCAGLAMIDE]
IC50 (HT-29 [5]): 21 nM

Compound: CCCCC(Cl)CCCC[C@H](C)[C@@H](O[C@@H]1OC[C@@H](O)[C@@H](O)[C@H]1O)c1cc(O)c([C@@H](CCCC)CCCC[C@H](O)[C@@H](OC(C)=O)c2cc(O)cc(O)c2)c(O)c1 (stereo partly drawn)
IC50 (MDA-MB-435 [3]): > 25000 nM | IC50 (MDA-MB-231 [4]): > 25000 nM

Compound: COc1ccc([C@@]23Oc4cc5c(c(OC)c4[C@]2(O)[C@H](O)[C@H](C(N)=O)[C@H]3c2ccccc2)[C@H]2OC[C@H]([C@H](O)CO)O[C@H]2O5)cc1
IC50 [8]: > 10000 nM | IC50 (HT-29 [5]): > 10000 nM

Compound: CO[C@H]1[C@H](O[C@H]2CC[C@]3(C=O)[C@H]4CC[C@]5(C)[C@](O)(C6=CC(=O)OC6)CC[C@]5(O)[C@@H]4CC[C@]3(O)C2)O[C@H](C)[C@H](O)[C@@H]1OC
IC50 (MDA-MB-435 [9]): > 10000 nM | IC50 (OVCAR-3): > 10000 nM | IC50 (HT-29 [10]): > 10000 nM

Compound: COc1cc(=O)oc(/C=C/C=C/C=C/C(C)=C/[C@]2(C)O[C@H](C)[C@](C)(O)[C@@H]2O)c1C
IC50 (A2780 [11]): 8200 nM | IC50 (MCF7 [12]): 6000 nM

The remaining lines, values ahead:

IC50 (MDA-MB-231 [1]): 1000 nM
Compound: CCCC[C@H]1CCCCC[C@@H](C)c2cc(O)c(c(O)c2)[C@@H](CCC)CCCCC[C@@H](C)c2cc(O)c1c(O)c2

IC50 (20S proteasome): 96 nM
Compound: CC[C@H](C)[C@@H]1NC(=O)[C@@H](CCC(N)=O)NC(=O)CNC(=O)[C@H](Cc2ccc(O)cc2)/N=C\[C@H](CC(C)C)NC(=O)[C@H](C(C)C)NC(=O)[C@H](CO)NC1=O

IC50 (MDA-MB-231 [1]): 1000 nM
Compound: C[C@@H]1CCCCC[C@H](CCCCO)c2c(O)cc(cc2O)[C@H](C)CCCCC[C@H](CCCO)c2c(O)cc1cc2O

IC50 (MCF7 [6]): 6800 nM | IC50 (A2780 [7]): 3800 nM
Compound: CC(=O)C1=C(O)C=C2Oc3c(C(C)=O)c(O)c(C)c(O)c3C2(C)C1=O (stereo not drawn)

IC50 (MDA-MB-435 [3]): 600 nM | IC50 (MDA-MB-231 [4]): 600 nM
Compound: CCCC[C@H]1CCCC[C@H](C)[C@@H](O[C@H]2OC[C@@H](O)[C@@H](O)[C@H]2O)c2cc(O)c(c(O)c2)[C@@H](CCCC)CCCC[C@H](C)[C@@H](O[C@@H]2OC[C@@H](O)[C@@H](O)[C@H]2O)c2cc(O)c1c(O)c2

IC50 (MDA-MB-435 [3]): 600 nM | IC50 (MDA-MB-231 [4]): 600 nM
Compound: CCCC[C@H]1CCCC[C@H](C)Cc2cc(O)c(c(O)c2)[C@@H](CCCC)CCCC[C@H](C)[C@@H](O[C@@H]2OC[C@@H](O)[C@@H](O)[C@H]2O)c2cc(O)c1c(O)c2

IC50 (MDA-MB-231 [1]): 1000 nM
Compound: CCC[C@H]1CCCCC[C@@H](C)c2cc(O)c(c(O)c2)[C@@H](CCCCO)CCCCC[C@@H](C)c2cc(O)c1c(O)c2
